How the values were obtained:
Format in all cases: cell-based
[1] = system: naïve CD4+ T cells; assay: Human Regulatory T Cell Differentiation Assay; settings: 6 days; for Cell viability % DMSO: viability dye; for activity at 500 µM: IL-2, 0.5 mM
Method: Peripheral blood mononuclear cells (PBMCs) from whole blood donated by health volunteers were separated by Ficoll-Paque gradient centrifugation and naïve CD4^+ T cells were subsequently isolated using magnet beads (EasySep™ Human Naïve CD4^+ T Cell Isolation Kit, Cambridge, Mass.). For regulatory T cell (Treg) differentiation assay, naïve CD4^+ T cells were cultured (1-10×10^4 cells) in CTS OpTmizer medium for 6 days and stimulated with 5 ng/ml TGF-β, 100 U/ml IL-2, and ImmunoCult™ Human […] T Cell Activator; Stemcell #10990) with/without our Compounds. Cell viability was determined using a viability dye (eBioscience Fixable Viability Dye eFluor 780: ThermoFisher 65-0865-14) at 1:500 dilution. The cells were gated for Treg, defined as Live, CD11c^−, CD14^−, CD19^−, CD8^−, CD4^+, CD3^+, CD25^+, FOXP3^+. Percent (%) Tregs were calculated as percentage of CD4^+, CD25^+, FOXP3^+ cells over total CD4^+ T cells. Statistical analysis was performed with GraphPad Prism Software Using One-Way ANOVA.

[2] = system: IL-6; assay: Cytokine Release from Human PBMCs: IL-6; settings: LPS, 24 hours, Concentration 100 μM
Method: (§1) Human donor blood (8 mL) was collected in sodium citrate CPT tubes and centrifuged at 1,600×g for 20 minutes at room temperature. Buffy coat containing PBMCs was collected and transferred to a 50 mL conical tube containing 30 mL of RPMI-1640 medium at room temperature (supplemented with penicillin-streptomycin). PBMCs samples were centrifuged at 400×g for 10 minutes at 10° C. The pelleted PBMCs were washed twice in 10 ml of RPMI-1640 medium (supplemented with penicillin-streptomycin), then resuspended in RPMI-1640 medium (supplemented with penicillin-streptomycin, fetal bovine serum, and L-Glutamine). PBMCs were filtered through a 70 micron mesh to remove any cellular debris. […] PBMCs in a 96-well plate were rested for 30 minutes in a 37° C., 5% CO2 incubator, then subsequently treated with 10 μI of indicated compound. After 2 hours 10 μL of LPS (0111:64) 1 mg/mL was added to test wells. After 24 hours of incubation at 37° C., 5% CO2, 100 μL of cell supernatant was collected and transferred to a 96-well plate (non-tissue treated, flat bottom). The plate was centrifuged at 350×g for 5 minutes at room temperature, and then the clear supernatant transferred to a new 96-well plate (non-tissue treated, flat bottom). The remaining cells were tested for viability using CellTiter-Glo® Luminescent Cell Viability Assay (Promega). The supernatant was analyzed for TNFα, IL-6 and IL-1β (kit […] Systems), using Luminex Immunoassay Technology (MAGPIX System).

[3] = system: MIP-1β; assay: Neutrophil Chemokine Production Assay: MIP-1β; settings: human neutrophils, 12 h
Method: (§2) A volume 25 mL of human blood was layered over 15 mL of Histopaque®-1077 and centrifuged at 500 g, R^T, for 30 min with no break applied to the centrifuge. The PBMC band and Histopaque®-1077 layer were removed leaving behind the bottom red layer which was mixed with 40 mL of 1× red blood cell (RBC) lysis buffer (Sigma-Aldrich) was and split into two 50 mL tubes. The volume for both fractions was brought to 50 mL with RBC lysis buffer, mixed by inversion, and then incubated at RT for 10 min. Solutions were centrifuged at 250 g, for 10 min at RT and the supernatant liquids removed. The reddish pellets were re-suspended in 1 mL of RBC lysis buffer and combined. The cell suspension was incubated for 5 min at RT in RBC lysis buffer. After incubation 45 mL of Hanks Balanced Salt Solution with no calcium, magnesium or phenol red (HBSS—) was added, the cell suspension was spun (250 g for 10 min at RT), and supernatant liquids were removed. The white pellet was re-suspended in 1 mL of HBSS—, and cell counts were determined. The neutrophil cell suspension was brought to a concentration of 1.11e6 cells/mL in RPMI complete (Sigma-Aldrich), and 180 μL of cell suspension was transferred to all wells within a sterile 96-well tissue culture treated plate resulting in 2.0×10^5 cells/well. […] After incubation, 10 μL of 2 μg/mL LPS solution in RPMI complete was added to each well except for control wells, which received an additional 10 μL of media. Cells were incubated for 12 h (37° C., 5% CO2), after which plates were centrifuged at 250 g, RT, for 5 min and supernatant liquids were obtained and stored at −80° C. until analyzed via Luminex® Multiplex Assay for various chemokines and cytokines. Three data points were acquired from two different blood donors and averaged.

[4] = system: MIP-1α; assay: Neutrophil Chemokine Production Assay: MIP-1α; settings: human neutrophils, 12 h
Method: as §2

[5] = system: Caco-2 colonocytes; assay: Human Caco-2 Barrier Integrity Assay, Study 1; settings: Caco-2, + cytokines (TNFα, IFNγ, IL-1β), 48 hours
Method: Caco-2 colonocytes were maintained at 37° C. and 5% CO2 in Dulbecco's Modified Eagle Medium (DMEM) and supplemented with 10% FBS, 1% NEAA, 1% penicillin-streptomycin. At 70-80% confluency, cells were trypsinized and seeded in 0.4 cm^2 transwell collagen I coated membranes with supplemented DMEM in both apical and basolateral compartments. […] After 48 hours, TEER readings were taken again and viability was measured by CellTiter 96® AQueous One Solution Cell Proliferation Assay (Promega).

[6] = system: TNFα; assay: Cytokine Release from Human PBMCs: TNFα; settings: LPS, 24 hours, Concentration 100 μM
Method: as §1

[7] = system: IL-8; assay: Neutrophil Chemokine Production Assay: IL-8; settings: human neutrophils, 12 h
Method: as §2

[8] = system: IL-1β; assay: Cytokine Release from Human PBMCs: IL-1β; settings: LPS, 24 hours, Concentration 100 μM
Method: as §1

[9] = Homo sapiens, 144 h, TGF-β, read-out: Treg induction % DMSO

SMILES | Cell viability % DMSO ([1]; 0.5 mM) | activity at 500 µM [1, 9] | IL6 % DMSO control [2] | % MIP-1β (DMSO + LPS = 100%) ([3]; Conc. 500.0 μM) | % MIP-1α (Vehicle + LPS = 100%) ([4]; Conc. 500.0 μM) | TNFα % of DMSO control [6] | % IL-8 (Vehicle + LPS = 100%) ([7]; Conc. 500.0 μM) | IL1β % DMSO control [8] | % MIP-1β (DMSO + LPS = 100%) ([3]; Conc. 1000.0 μM) | % MIP-1α (Vehicle + LPS = 100%) ([4]; Conc. 1000.0 μM) | % IL-8 (Vehicle + LPS = 100%) ([7]; Conc. 1000.0 μM) | also measured
C[C@@H](O)CCO [(R) 1,3-butanediol] | = (90% > <110%: =) | 90 to 110% | = ((=) 90% > <110% DMSO) | + (+ = <90% Vehicle) | − (− = >90% Vehicle) | = ((=) 90% > <110% DMSO) | − (− = >90% Vehicle) | = ((=) 90% > <110% DMSO) |  |  |  | Cell viability % DMSO ([1]; 100 μM): = (90% > <110%: =); activity at 100 µM ([1]; Homo sapiens, 144 h, TGF-β, IL-2, 100 μM, read-out: Treg induction % DMSO): 90 to 110%; % MIP-1β (DMSO + LPS = 100%) ([3]; Conc. 100.0 μM): + (+ = <90% Vehicle); % MIP-1α (Vehicle + LPS = 100%) ([4]; Conc. 100.0 μM): − (− = >90% Vehicle); % Change in TEER from DMSO ([5]; 100 μM): − (<125%: −); % Change in TEER from DMSO ([5]; 0.5 mM): − (<125%: −); % IL-8 (Vehicle + LPS = 100%) ([7]; Conc. 100.0 μM): − (− = >90% Vehicle)
O=C[C@H](O)[C@@H](O)[C@@H](O)CO [L-arabinose] | = (90% > <110%: =) | 90 to 110% | + ((+) 50% > <90% DMSO) | − (− = >90% Vehicle) | − (− = >90% Vehicle) | + ((+) 50% > <90% DMSO) | − (− = >90% Vehicle) | = ((=) 90% > <110% DMSO) | − (− = >90% Vehicle) | − (− = >90% Vehicle) | − (− = >90% Vehicle) | Cell viability % DMSO ([1]; 1 mM): = (90% > <110%: =); activity at 1000 µM ([1]; Homo sapiens, 144 h, TGF-β, IL-2, 1 mM, read-out: Treg induction % DMSO): 90 to 110%
CC(=O)O [acetate] |  |  | = ((=) 90% > <110% DMSO) | + (+ = <90% Vehicle) | + (+ = <90% Vehicle) | = ((=) 90% > <110% DMSO) | − (− = >90% Vehicle) | = ((=) 90% > <110% DMSO) | + (+ = <90% Vehicle) | ++ (++ = <70% Vehicle) | − (− = >90% Vehicle) | % MIP-1β (DMSO + LPS = 100%) ([3]; Conc. 3000.0 μM): +++ (+++ = <50% Vehicle); % MIP-1α (Vehicle + LPS = 100%) ([4]; Conc. 3000.0 μM): +++ (+++ = <50% Vehicle); % Change in TEER from DMSO ([5]; 1 mM): − (<125%: −); % Change in TEER from DMSO ([5]; 3 mM): − (<125%: −); % IL-8 (Vehicle + LPS = 100%) ([7]; Conc. 3000.0 μM): +++ (+++ = <50% Vehicle)

Source: patent publication US20210299079A1, “MONOMETHYL FUMARATE-CARRIER CONJUGATES AND METHODS OF THEIR USE” (Flagship Pioneering Innovations V, Inc., priority 2018, published 2021)
